From article PMC5979466, “Allosteric Activation of GDP-Bound Ras Isoforms by Bisphenol Derivative Plasticisers” (International Journal of Molecular Sciences, 2018)
Read-outs that look alike come from different tables or passages of the source.

Legend:
K-Ras4B bound to GDP [1] = target: T1, K-Ras4B bound to GDP (Homo sapiens, UniProt P01116); assay: NMR titration (1H-15N HSQC chemical shift perturbation) of GDP-bound K-Ras4B; format: binding
T1 construct: made in house; host or cells: E. coli
Method: The NMR titration experiments, resonance assignments, and data handling were performed as previously published. Spectra were acquired on Bruker DRX 600 and AVANCE III HD 700 spectrometers, except for ^19F NMR spectra that were recorded on a Bruker DPX 250 spectrometer at 235 MHz. The reference experiment for the competitive titration of ^14N SOS^cat and BPAF to ^15N-enriched GDP-bound K-Ras4B was acquired in the presence of 0.2 mM BPAF in PBS at pH 7.4.

GDP-bound K-Ras4B = target: T2, GDP-bound K-Ras4B (Homo sapiens, UniProt P01116); assay: Shift of Y157 amide NMR resonance towards active GppNHp-bound state; format: binding; details: saturated ligand-protein complex
T2 construct: made in house; host or cells: E. coli
Method: (§1) The NMR titration experiments, resonance assignments, and data handling were performed as previously published. Spectra were acquired on Bruker DRX 600 and AVANCE III HD 700 spectrometers, except for ^19F NMR spectra that were recorded on a Bruker DPX 250 spectrometer at 235 MHz. The reference experiment for the competitive titration of ^14N SOS^cat and BPAF to ^15N-enriched GDP-bound K-Ras4B was acquired in the presence of 0.2 mM BPAF in PBS at pH 7.4. Upon titration of ^14N SOS^cat to a 0.4 mM sample of GDP-bound ^15N-enriched K-Ras4B, line broadening and/or disappearance of NMR resonances for GDP-loaded K-Ras4B bound to SOS^cat is observed probably due to rotational correlation effects of the approx. 80 kDa protein-protein complex. Line broadening can already be detected in 2D ^1H-^15N HSQC spectra of ^14N SOS^cat:^15N-enriched GDP-bound K-Ras4B at a molar ratio of 1:1, and this effect is more pronounced when extra SOS^cat is added to adjust a molar ratio of 1:2. Addition of an increasing amount of BPAF to the 1:2 ^15N-enriched K-Ras4B/^14N SOS^cat complex (1:2:0.5, 1:2:1, 1:2:4) recovers the backbone amide proton NMR resonances in 2D ^1H-^15N HSQC spectra. The acquired NMR spectrum is similar to the ^15N-enriched GDP-bound K-Ras4B:BPAF ^1H-^15N HSQC spectrum.

Hela cells = assay: MTT cytotoxicity assay; format: cell-based; details: Homo sapiens, Hela cells exposed for 72 hrs
Method: Hela cells were used to determine IC50 values for different bisphenols. Therefore cells (1100 cells/well) were seeded in 96 well plates. 24 h after seeding cells were treated with individual bisphenols or corresponding DMSO in indicated concentrations up to 72 h. Subsequently, 10 μL of a MTT stock solution (5 mg/mL) were added to each well for 4 h. The mixture was removed carefully via pipetting, and the remaining formazan crystals formed were dissolved by 100 μL DMSO/10% SDS/0.01 M acetic acid for 15 min. The absorbance (570 nm and reference 620 nm) was determined using an absorbance reader and blank values were subtracted. Prism 6 (GraphPad Software, La Jolla, CA, USA) was used to calculate IC50 values.

K-Ras4B [2] = target: T3, K-Ras4B (Homo sapiens, UniProt P01116); set-up: made in house; host or cells: E. coli (given for K-Ras4B only); method as in PMID 26867649; details: cited from earlier work
[3] = Solubility of the ligands in the NMR study; details: NMR study samples
H-Ras = target: T4, H-Ras (Homo sapiens, UniProt P01112); assay: NMR-based titration of H-Ras; format: binding
T4 construct: made in house; host or cells: E. coli

N-Ras (1-170) = target: T5, N-Ras (1-170) (Homo sapiens, UniProt P01111); assay: NMR-based titration of N-Ras; format: binding
T5 construct: For N-Ras (1-170), we also observed a similar pattern of CSPs; made in house

[4] = target: T6, GDP-bound K-Ras4B/SOS^cat complex (Homo sapiens, UniProt P01116); assay: Competitive NMR titration of 15N K-Ras4B with 14N SOScat and ligand; format: binding; details: BPAF added to 1:2 K-Ras4B/SOScat complex, recovery of resonances
T6 construct: made in house; host or cells: E. coli (given for K-Ras4B only)
Method: as §1

Rap-1A = target: T7, Rap-1A (Homo sapiens, UniProt P62834); assay: NMR titration of Rap-1A; format: binding; details: up to a BPAF concentration of 5 mM
T7 construct: Rap1A comprising residues 1–170 were expressed in E. coli; made in house; host or cells: E. coli
T7 sequence (P62834 1-170): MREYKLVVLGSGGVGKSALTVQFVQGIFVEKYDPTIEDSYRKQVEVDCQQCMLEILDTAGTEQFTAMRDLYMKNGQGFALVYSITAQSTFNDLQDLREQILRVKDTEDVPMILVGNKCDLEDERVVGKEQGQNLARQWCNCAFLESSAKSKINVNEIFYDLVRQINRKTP

ERK = assay: Western blot of ERK phosphorylation (pERK/total ERK); format: cell-based; details: serum-starved HEK293T cells, BPAF 20 µM, BPNH2 33 µM
Method: (§2) G-LISA Ras activation assay was performed as described before. Briefly, HEK293T cells were seeded in 10-cm dishes followed by overnight incubation and afterwards serum-starved for 16 h. Cells were then treated with individual bisphenols (BPAF [20 µM] and BPNH2 [33 µM]) or DMSO (control, Ctrl) in a time-dependent manner (1, 2, 4 h), subsequently lysed and the protein concentration was determined using Precision RedTM Advanced Protein Assay Reagent. Quantitative analysis of active Ras was performed with a G-LISA Ras activation assay (Cytoskeleton, Inc., Denver CO, USA) using 1 mg/mL of the sample. The signal intensity was determined by measuring absorbance at 490 nm using a microplate spectrophotometer. Additionally, these lysates were subjected to western blot analysis in order to determine the activation of ERK and AKT signalling. To test for statistical significance, a two-tailed Student’s t-test was applied using Prism version 5.0 (GraphPad Software, La Jolla, CA, USA).

AKT kinase = assay: Western blot of AKT phosphorylation (pAKT/total AKT); format: cell-based; details: serum-starved HEK293T cells, BPAF 20 µM, BPNH2 33 µM
Method: as §2

K-Ras4B [5] = target: T3, K-Ras4B; assay: SOScat-catalysed guanine nucleotide exchange assay (mant-GDP fluorescence); format: biochemical; set-up: made in house; host or cells: E. coli (given for K-Ras4B only)
Method: (§3) The SOS^cat assay was performed as described. Briefly, a solution of 1 µM Ras*mantGDP, 200 µM GDP was mixed with different concentrations of BPNH2 and incubated at 20 °C for 5–10 min. To prevent insolubility of the BPNH2, 5% v/v DMSO was applied. After adding 0.5 µM of SOS^cat, a fluorescence spectrum was recorded with a Perkin Elmer LS50B instrument applying an excitation wavelength of 366 nm and an emission wavelength of 442 nm. The kobs value describing the dissociation rate of the nucleotide is obtained for each BPNH2 concentration from a single exponential fit to the fluorescence time course. The GDI (guanine nucleotide dissociation inhibitor) assay is carried out similar to the SOS^cat assay: Instead of mantGDP, the non-hydrolysable GTP analogue mantGppNHp is used but no SOS^cat is added here. Again, the dissociation of the fluorescent nucleotide from Ras in the presence of various BPNH2 concentrations is detected by the decrease of fluorescence and the time dependence yields the kobs values. A plot of the kobs values versus BPNH2 concentration fitted by a binding isotherm yields the KD value of the BPNH2 complex (Figure 4 and Figure S7).

K-Ras4B [6] = target: T3, K-Ras4B; assay: GDI (guanine nucleotide dissociation inhibition) assay with mantGppNHp; format: biochemical; set-up: made in house; host or cells: E. coli
Method: as §3
Supporting Figure 7. GDI assay carried out in triplicate (black, red, green; upper panel): The GDI (guanine nucleotide dissociation inhibitor) assay is carried out similar to the SOScat assay: Instead of mantGDP, the non-hydrolysable GTP analogue mantGppNHp is used but no SOScat is added here. Again, the dissociation of the fluorescent nucleotide from Ras in the presence of various
BPNH2 concentrations is detected by the decrease of fluorescence and the time dependence yields the kobs values. A plot of the kobs values versus BPNH2 concentration fitted by a binding isotherm yields the KD value of the BPNH2 complex (please also refer to […]
MTT cytotoxicity assay (lower four panels): The IC50 values in Hela cells exposed for 72 hrs to BPs were determined as follows: 53.79 […]
(1 picture or pasted object on this page, not shown here)

Ras = assay: G-LISA Ras activation assay; format: cell-based; details: serum-starved HEK293T cells, BPAF 20 µM, 1, 2, 4 h
Method: as §2

K-Ras4B bound to GDP [7] = target: T1, K-Ras4B bound to GDP; details: NMR titration, cited from earlier work
[8] = NMR titration, GDP-bound 15N-enriched K-Ras4B

CC(c1ccc(O)cc1)c1ccc(O)cc1 [BPE, 1,1-Bis(4-hydroxyphenyl)ethane]
Kd (K-Ras4B bound to GDP [1]; [8]): 6500 µM

CC(C)(c1ccc(O)cc1)c1ccc(O)cc1 [BPA, 2,2-Bis(4-hydroxyphenyl)propane]
shift of Y157 amide resonance relative to the frequency in the active GppNHp-bound state (GDP-bound K-Ras4B): 49% | IC50 (Hela cells): 53.8 µM | interference with GEF (Sos)-mediated nucleotide exchange from GDP to GTP (K-Ras4B [2]): can interfere

Oc1ccc(C(c2ccccc2)(c2ccccc2)c2ccc(O)cc2)cc1 [BPBP, Bis(4-hydroxyphenyl)diphenylmethane]
solubility comment [3]: insoluble

Oc1ccc(C(F)(F)F)cc1 [AFX, 4-(Trifluoromethyl)phenol, reference compound]
Kd (K-Ras4B bound to GDP [1]; [8]): > 50000 µM

Oc1ccc(C(c2ccc(O)cc2)(C(F)(F)F)C(F)(F)F)cc1 [BPAF, 2,2-Bis(4-hydroxyphenyl)hexafluoropropane]
Kd (H-Ras): 400 ± 20 µM | Kd (N-Ras (1-170)): 770 ± 20 µM | antagonism of the interaction between GDP-bound K-Ras4B and SOScat [4]: can antagonise | Kd (K-Ras4B bound to GDP [1]; [8]): 350 ± 20 µM | Kd (K-Ras4B bound to GDP [1]; calculated from six binding pocket residues (L6, V9, Y40, L56, T74, G75), Fig. S1): 347 ± 5 µM | chemical shift perturbations (CSPs) on titration (Rap-1A): could not be detected | level of ERK phosphorylation / Ras signalling via c-Raf kinase (ERK): increased the level of ERK phosphorylation | level of phosphorylated AKT kinase (pAKT) (AKT kinase): slightly elevated levels of phosphorylated AKT kinase (pAKT) after 2 h | shift of Y157 amide resonance relative to the frequency in the active GppNHp-bound state (GDP-bound K-Ras4B): 58% | IC50 (Hela cells): 17.8 µM | interference with the SOScat mediated nucleotide exchange (K-Ras4B [5]): interfere | GDI-effect (inhibition of nucleotide dissociation) (K-Ras4B [6]): no or only a very small effect | Ras activity (G-LISA) (Ras): significant and time-dependent augmentation of Ras activity

O=S(=O)(c1ccc(O)cc1)c1ccc(O)cc1 [BPS, 4,4′-Sulfonyldiphenol]
shift of Y157 amide resonance relative to the frequency in the active GppNHp-bound state (GDP-bound K-Ras4B): 20% | IC50 (Hela cells): 119 µM | interference with GEF (Sos)-mediated nucleotide exchange from GDP to GTP (K-Ras4B [2]): cannot interfere | Kd (K-Ras4B bound to GDP [7]; listed as S): 6000 ± 700 µM | Kd (K-Ras4B bound to GDP [7]): 5800 µM

Oc1ccc(Cc2ccc(O)cc2)cc1 [BPF, 4,4′-Methylenediphenol]
Kd (K-Ras4B bound to GDP [1]; [8]): 14000 µM

CCC(C)(c1ccc(O)cc1)c1ccc(O)cc1 [BPB, 2,2-Bis(4-hydroxyphenyl)butane]
Kd (K-Ras4B bound to GDP [1]; [8]): 3600 µM

Oc1ccc(C2(c3ccc(O)cc3)c3ccccc3-c3ccccc32)cc1 [BPFL, 4,4′-(9-Fluorenylidene)diphenol]
solubility comment [3]: insoluble

Nc1cc(C(c2ccc(O)c(N)c2)(C(F)(F)F)C(F)(F)F)ccc1O [BPNH2, 2,2-Bis(3-amino-4-hydroxyphenyl)hexafluoropropane]
Kd (K-Ras4B bound to GDP [1]; [8]): 400 µM | level of ERK phosphorylation / Ras signalling via c-Raf kinase (ERK): failed to activate | level of phosphorylated AKT kinase (pAKT) (AKT kinase): clearly be detected already after 1 h | shift of Y157 amide resonance relative to the frequency in the active GppNHp-bound state (GDP-bound K-Ras4B): approx. 64% | IC50 (Hela cells): 33 µM | interference with the SOScat mediated nucleotide exchange (K-Ras4B [5]): interfere | Kd (K-Ras4B [5]; kobs of mGDP dissociation versus ligand concentration, 0.5 µM SOScat, 20 °C, 5% DMSO, read-out: KD from SOScat-assay): 200 ± 100 µM | GDI-effect (inhibition of nucleotide dissociation) (K-Ras4B [6]): significant GDI-effect | Kd (K-Ras4B [6]; mantGppNHp, no SOScat, triplicate, read-out: KD from GDI-assay): 340 ± 20 µM

CC(c1ccccc1)(c1ccc(O)cc1)c1ccc(O)cc1 [BPAP, 4,4′-(1-Phenylethylidene)bisphenol]
solubility comment [3]: insoluble
